Results published in paper PMC12376128, “In vitro and In Vivo Drug Metabolism Analysis of BPI-460372 - A Covalent TEAD1/3/4 Inhibitor” (Current Drug Metabolism, 2025).

Assays:
CYP2C8 = experiment: Metabolic stability in HLMs with or without specific CYP inhibitor (quercetin); format: in vitro ADME, human; conditions: HLMs 1 mg protein/mL, substrate 1 μM, quercetin 20 µM
Protocol: (§1) Before starting the experiments, the HLMs were thawed gently on ice. Metabolic stability incubations were performed at 37 °C. The incubations contained 100 mM phosphate buffer saline (PBS, pH 7.4), HLMs (1 mg protein·mL^-1), dimethyl sulfoxide (DMSO, blank control) or a selective CYP inhibitor, and BPI-460372 or positive control substrates (final incubation concentration, 1 μM). The incubation process started with the addition of NADPH (1 mM final concentration) after a 5-minute preincubation period. The chemical inhibitors were as follows: a-naphthoflavone (2 µM) for CYP1A2, ticlopidine (20 µM) for 2B6, quercetin (20 µM) for CYP2C8, sulfaphenazole (20 µM) for CYP2C9, ticlopidine (200 µM) for CYP2C19, quinidine (20 µM) for CYP2D6, and ketoconazole (20 µM) for CYP3A [9]. Aliquots were maintained in acetonitrile containing internal standard (IS) at various time points, such as 0 min, 5 min, 10 min, 20 min, 30 min, and 60 min. All incubations were performed in triplicate, and the concentration in the supernatant was determined by liquid chromatography-tandem mass spectrometry (LC-MS/MS).
(§2) The elimination rate constant k (min^-1) was obtained by linear regression from the natural logarithm of the […] of the parent drug and the incubation time. The inhibition rate was calculated using equation 1 [10]: […]

monkey hepatocytes = experiment: Metabolism and metabolite formation in hepatocytes; format: in vitro ADME, cynomolgus monkey; conditions: cynomolgus monkey hepatocytes, 10 µM BPI-460372, 4 h incubation
Source text: (§3) All the samples were duplicates.

mouse hepatocytes = experiment: Metabolism and metabolite formation in hepatocytes; format: in vitro ADME, ICR mouse; conditions: ICR mouse hepatocytes, 10 µM BPI-460372, 4 h incubation
Source text: as §3

rat hepatocytes = experiment: Metabolism and metabolite formation in hepatocytes; format: in vitro ADME, SD rat; conditions: SD rat hepatocytes, 10 µM BPI-460372, 4 h incubation
Source text: as §3

[1] = Metabolite identification in dog plasma; format: in vivo, beagle dogs; conditions: oral 8 mg/kg BPI-460372, average of male and female pooled samples
Protocol: (§4) The plasma samples were acquired from SD rats (n=6, 3 female and 3 male) and beagle dogs (n=6, 3 female and 3 male) after administration of 12 mg/kg and 8 mg/kg of BPI-460372, respectively. The rat urine, feces, and bile samples were acquired in SD rats after administration of 6 mg/kg of BPI-460372.
(§5) Equal volume from each rat was pooled together to get 1 male and 1 female 0-24 h plasma samples. An equal percentage by volume of individual urine sample (0-8, 8-24, and 24-48 h) from 3 female and 3 male rats was pooled by time interval across rats, respectively, resulting in two pooled urine samples (1 male and 1 female). An equal percentage by weight of individual feces samples (0-8, 8-24, and 24-48 h) was pooled by time interval across female and male rats, resulting in two pooled fecal samples. An equal percentage by volume of individual bile samples (0-4, 4-8, 8-24, and 24-48 h) was pooled by time interval across female and male rats, resulting in two pooled bile samples. […] Equal volumes from 3 female and 3 male rats were pooled together to get two 0-48 h plasma samples. For blank samples of plasma, urine, and bile, equal volume was pooled across subjects. For a blank sample of feces, equal weight was pooled across rats.
(§6) The pooled plasma, feces, and bile samples were extracted by adding 3-fold volume of acetonitrile, and the mixture was vortexed (1 min) and sonicated (1 min) before centrifugation (7220 g, 5 min). The pooled urine samples were centrifuged (7220 g, 5 min). Then the supernatant was transferred into a clean tube and evaporated to dryness under the nitrogen stream. The residues were redissolved with an appropriate volume of acetonitrile/water (20: 80, v: v). After centrifugation, the redissolved solution was transferred into an HPLC vial for UHPLC-Orbitrap-HRMS (15000 g, 10 min, 4°C).

TEAD proteins = experiment: Covalent binding to TEAD proteins (in vitro); conditions: in vitro studies
human hepatocytes = experiment: Metabolism and metabolite formation in hepatocytes; conditions: human hepatocytes, 10 µM BPI-460372, 4 h incubation
TEAD palmitoylation = experiment: Inhibition of TEAD palmitoylation (in vitro); format: biochemical; conditions: in vitro studies
[2] = Metabolite identification in rat plasma, urine, feces and bile; format: in vivo, SD rats; conditions: for Relative abundance of MS peak areas, Rat Bile 0-48 h / Relative abundance of MS peak areas, Rat Feces 0-48 h / Relative abundance of MS peak areas, Rat Urine 0-48 h: oral 6 mg/kg BPI-460372, average of male and female pooled samples; for Relative abundance of MS peak areas, Rat Plasma 0-24 h: oral 12 mg/kg BPI-460372, average of male and female pooled samples
Protocol: as §4, §5, §6

dog hepatocytes = experiment: Metabolism and metabolite formation in hepatocytes; format: in vitro ADME, beagle dog; conditions: beagle dog hepatocytes, 10 µM BPI-460372, 4 h incubation
Source text: as §3

CYP2C9 [3] = target: T1, CYP2C9 (Homo sapiens, UniProt P11712); experiment: Metabolic stability in recombinant human CYP isoenzymes; format: in vitro ADME; set-up: purchased Cypex Ltd. (Dundee, UK); conditions: rCYP2C9, 1 µM
Protocol: (§7) To identify the specific isoform that participates in the metabolism of BPI-460372, 1 µM BPI-460372 or positive control substrates were mixed with recombinant human CYP1A2, 2B6, 2C8, 2C9, 2C19, 2D6 or 3A4 (100 pmol P450·mL^-1), and the reaction was started by the addition of NADPH (1 mM final concentration) after 5-minute preincubation at 37°C. Aliquots were maintained in acetonitrile containing IS at different time points at 0 min, 5 min, 10 min, 20 min, 30 min, and 60 min. All incubations were performed in triplicate, and the concentration of the supernatant was determined by LC-MS/MS.
(§8) A substrate depletion approach was employed to determine the intrinsic clearance (CLint (rCYPj)) for each isoform. The contribution of each isoform was estimated using equations 2 and 3. CYPj abundance was evaluated as the abundance (CYPj) of each isoform in HLMs (pmol/mg protein).

CYP2C9 [4] = target: T1, CYP2C9; experiment: Metabolic stability in HLMs with or without specific CYP inhibitor (sulfaphenazole); format: in vitro ADME; set-up: HLMs (1 mg protein·mL^-1); tissue BioIVT; host or cells: pooled human liver microsomes; conditions: 1 µM, pH 7.4
Protocol: as §1, §2

CYP1A2 = target: T2, CYP1A2 (Homo sapiens, UniProt P05177); experiment: Metabolic stability in HLMs with or without specific CYP inhibitor (α-naphthoflavone); format: in vitro ADME; set-up: HLMs (1 mg protein·mL^-1); tissue BioIVT; host or cells: pooled human liver microsomes; conditions: HLMs 1 mg protein/mL, substrate 1 μM, α-naphthoflavone 2 µM
T2 sequence (P05177 1-516): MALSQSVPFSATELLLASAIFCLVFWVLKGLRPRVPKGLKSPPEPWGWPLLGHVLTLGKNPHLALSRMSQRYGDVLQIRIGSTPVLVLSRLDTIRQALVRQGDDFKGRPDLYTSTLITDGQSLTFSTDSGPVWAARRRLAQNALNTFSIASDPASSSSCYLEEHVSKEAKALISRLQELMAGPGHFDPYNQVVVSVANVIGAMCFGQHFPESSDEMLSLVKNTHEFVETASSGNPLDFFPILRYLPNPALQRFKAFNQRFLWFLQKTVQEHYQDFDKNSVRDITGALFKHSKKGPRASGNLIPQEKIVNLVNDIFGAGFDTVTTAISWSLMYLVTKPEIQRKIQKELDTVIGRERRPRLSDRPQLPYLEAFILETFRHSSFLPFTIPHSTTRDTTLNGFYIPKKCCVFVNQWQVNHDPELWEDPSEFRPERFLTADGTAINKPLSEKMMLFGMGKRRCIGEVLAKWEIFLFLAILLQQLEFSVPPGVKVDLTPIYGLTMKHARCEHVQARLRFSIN
Protocol: as §1, §2

CYP3A4 = experiment: Metabolic stability in HLMs with or without specific CYP inhibitor (ketoconazole); format: in vitro ADME, human; conditions: HLMs 1 mg protein/mL, substrate 1 μM, ketoconazole 20 µM
Protocol: as §1, §2

recombinant human CYP3A4 = target: T3, recombinant human CYP3A4 (Homo sapiens, UniProt P08684); experiment: Metabolic stability in recombinant human CYP isoenzymes; format: in vitro ADME; conditions: rCYP3A4, 1 µM
T3 construct: purchased Cypex Ltd. (Dundee, UK)
Protocol: as §7, §8

[5] = tested on: cysteine S-conjugate β-lyase; experiment: Effect of cysteine S-conjugate β-lyase inhibitor AOAA on the metabolism of BPI-460372 (rat urine); conditions: for Area ratio in rat urine, mean (%CV): 20 mg/kg BPI-460372 + 100 mg/kg AOAA, once daily 21 days, urine 0-48 h on day 21; for Change of area ratio in rat urine on coadministration with AOAA: 20 mg/kg BPI-460372 with versus without 100 mg/kg AOAA
Protocol: To investigate the effect of cysteine S-conjugate β-lyase on the metabolism of BPI-460372, SD rats were treated with 20 mg/kg BPI-460372 alone (n=3, male) or 20 mg/kg BPI-460372 coadministration with 100 mg/kg cysteine S-conjugate β-lyase inhibitor AOAA (n=3, male), once daily for 21 consecutive days. On day 21, urine samples were collected at 0-8, 8-24 and 24-48 h. The same percentage of urine samples from each rat was taken at these three time intervals and mixed. The samples were analyzed by LC-MS/MS and then semi-quantified using the peak area ratio of analyte versus IS.

CYP2D6 [6] = target: T4, CYP2D6 (Homo sapiens, UniProt P10635); experiment: Metabolic stability in recombinant human CYP isoenzymes; format: in vitro ADME; set-up: purchased Cypex Ltd. (Dundee, UK); conditions: in 5 min
Protocol: as §7, §8

CYP2D6 [7] = target: T4, CYP2D6; experiment: Metabolic stability in HLMs with or without specific CYP inhibitor (quinidine); format: in vitro ADME; set-up: HLMs (1 mg protein·mL^-1); tissue BioIVT; host or cells: pooled human liver microsomes; conditions: HLMs 1 mg protein/mL, substrate 1 μM, quinidine 20 µM
Protocol: as §1, §2

T1 sequence (P11712 whole entry, canonical isoform): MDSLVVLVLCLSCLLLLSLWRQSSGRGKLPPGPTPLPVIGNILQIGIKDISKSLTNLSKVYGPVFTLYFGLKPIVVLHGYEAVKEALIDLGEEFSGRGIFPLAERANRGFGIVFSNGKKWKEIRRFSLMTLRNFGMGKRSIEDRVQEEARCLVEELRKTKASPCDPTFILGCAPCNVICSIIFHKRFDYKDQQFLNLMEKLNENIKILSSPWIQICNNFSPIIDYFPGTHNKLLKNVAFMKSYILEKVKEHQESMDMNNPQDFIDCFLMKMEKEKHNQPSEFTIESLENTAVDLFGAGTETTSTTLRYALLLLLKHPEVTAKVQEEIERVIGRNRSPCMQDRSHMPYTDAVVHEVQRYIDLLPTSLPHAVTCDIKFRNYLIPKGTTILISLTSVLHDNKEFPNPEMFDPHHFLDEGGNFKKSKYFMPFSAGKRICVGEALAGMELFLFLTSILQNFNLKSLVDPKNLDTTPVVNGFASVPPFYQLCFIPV
T4 sequence (P10635 whole entry): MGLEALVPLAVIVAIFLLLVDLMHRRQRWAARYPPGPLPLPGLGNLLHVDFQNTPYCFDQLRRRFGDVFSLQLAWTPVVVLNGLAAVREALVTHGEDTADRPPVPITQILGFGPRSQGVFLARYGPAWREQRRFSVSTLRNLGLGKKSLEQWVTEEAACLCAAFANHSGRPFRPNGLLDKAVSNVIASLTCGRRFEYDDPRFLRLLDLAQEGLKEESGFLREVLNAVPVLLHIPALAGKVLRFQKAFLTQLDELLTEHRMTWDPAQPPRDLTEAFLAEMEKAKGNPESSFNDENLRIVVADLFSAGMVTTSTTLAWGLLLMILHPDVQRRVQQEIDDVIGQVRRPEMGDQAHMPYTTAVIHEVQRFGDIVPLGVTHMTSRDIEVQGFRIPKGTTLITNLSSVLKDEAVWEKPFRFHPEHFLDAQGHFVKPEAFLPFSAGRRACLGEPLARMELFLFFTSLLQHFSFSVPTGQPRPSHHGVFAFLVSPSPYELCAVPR
T3 sequence (P08684 whole entry): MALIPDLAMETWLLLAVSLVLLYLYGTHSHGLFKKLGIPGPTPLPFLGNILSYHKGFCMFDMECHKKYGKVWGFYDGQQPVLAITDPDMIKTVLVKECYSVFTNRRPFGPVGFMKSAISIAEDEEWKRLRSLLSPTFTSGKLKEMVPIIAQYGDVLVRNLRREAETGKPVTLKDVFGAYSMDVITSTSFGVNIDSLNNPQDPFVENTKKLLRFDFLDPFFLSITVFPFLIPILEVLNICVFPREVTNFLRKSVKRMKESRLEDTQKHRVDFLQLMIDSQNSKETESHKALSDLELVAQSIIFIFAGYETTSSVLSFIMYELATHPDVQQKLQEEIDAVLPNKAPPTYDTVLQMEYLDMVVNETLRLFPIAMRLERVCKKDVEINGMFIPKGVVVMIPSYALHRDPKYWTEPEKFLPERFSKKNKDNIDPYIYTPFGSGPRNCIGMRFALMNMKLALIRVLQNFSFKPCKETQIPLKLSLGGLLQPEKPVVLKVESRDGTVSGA

| SMILES | UV (314 nm) Peak Areas Relative Abundance (monkey hepatocytes) [%] | UV (314 nm) Peak Areas Relative Abundance (mouse hepatocytes) | UV (314 nm) Peak Areas Relative Abundance (rat hepatocytes) | Relative abundance of MS peak areas, Dog Plasma 0-48 h [1] [%] | UV (314 nm) Peak Areas Relative Abundance (human hepatocytes) | Relative abundance of MS peak areas, Rat Bile 0-48 h [2] [%] | Relative abundance of MS peak areas, Rat Feces 0-48 h [2] [%] | Relative abundance of MS peak areas, Rat Urine 0-48 h [2] [%] | Relative abundance of MS peak areas, Rat Plasma 0-24 h [2] [%] | UV (314 nm) Peak Areas Relative Abundance (dog hepatocytes) | Area ratio in rat urine, mean (%CV) [5] | also measured |
| --- | --- | --- | --- | --- | --- | --- | --- | --- | --- | --- | --- | --- |
| CC(=O)O[C@H]1C(=O)[C@@]2(C)[C@H]([C@H](OC(=O)c3ccccc3)[C@]3(O)C[C@H](OC(=O)[C@H](O)[C@@H](NC(=O)c4ccccc4)c4ccccc4)C(C)=C1C3(C)C)[C@]1(OC(C)=O)CO[C@@H]1C[C@@H]2O [Paclitaxel, reference compound] | – | – | – | – | – | – | – | – | – | – | – | Inhibition Rate (CYP2C8): 78.2% |
| CC(O)C(=O)N1CC(n2c(=O)n(-c3ccc(C(F)(F)F)cc3)c3nccnc32)C1 (stereo not drawn) [M407 (BPI-460430)] | 3.61 | 1.39% | 2.75% | 6.23 | + | 0.72 | 5.94 | 1.02 | 16.39 | + | – | Covalent binding to TEAD proteins (TEAD proteins): do not covalently bind; Activity: inhibition of TEAD palmitoylation (TEAD palmitoylation): inactive |
| O=C(O)Cc1ccccc1Nc1c(Cl)cccc1Cl [Diclofenac, diclofenac, reference compound] | – | – | – | – | – | – | – | – | – | – | – | CLint (rCYPj) (CYP2C9 [3]): 3.53 µL/min/pmol; Inhibition Rate (CYP2C9 [4]): 98.2% |
| CCOc1ccc(NC(C)=O)cc1 [Phenacetin, phenacetin, reference compound] | – | – | – | – | – | – | – | – | – | – | – | Inhibition Rate (CYP1A2): 79.2% |
| Cc1ncc2n1-c1ccc(Cl)cc1C(c1ccccc1F)=NC2 [Midazolam, midazolam, reference compound] | – | – | – | – | – | – | – | – | – | – | – | Inhibition Rate (CYP3A4): 99.7%; CLint (rCYPj) (recombinant human CYP3A4): 1.93 µL/min/pmol |
| NC(CSCC(F)C(=O)N1CC(n2c(=O)n(-c3ccc(C(F)(F)F)cc3)c3nccnc32)C1)C(=O)O (stereo not drawn) [M528] | 3.01 | 24.76% | 18.4% | 7.65 | 3.01% | 43.88 | 1.61 | 0.69 | 1.53 | 22.65% | 0.12 (37) | Change of area ratio in rat urine on coadministration with AOAA [5]: reduced |
| COc1ccc2c(c1)[C@]13CCCC[C@@H]1[C@H](C2)N(C)CC3 [Dextromethorphan, reference compound] | – | – | – | – | – | – | – | – | – | – | – | Extent of metabolism in recombinant human CYP2D6 (CYP2D6 [6]): completely metabolized; Inhibition Rate (CYP2D6 [7]): 87.1% |
| CSCC(O)C(=O)N1CC(n2c(=O)n(-c3ccc(C(F)(F)F)cc3)c3nccnc32)C1 (stereo not drawn) [M453] | – | – | – | 3.58 | – | – | 1.57 | 17.25 | 0.05 | – | 0.23 (23) | Change of area ratio in rat urine on coadministration with AOAA [5]: reduced |
| O=C(C(O)CO)N1CC(n2c(=O)n(-c3ccc(C(F)(F)F)cc3)c3nccnc32)C1 (stereo not drawn) [M423 (BPI-460456)] | 2.01 | + | + | 40.81 | 2.36% | 0.58 | 9.07 | 17.63 | 2.71 | + | 19.0 (57) | Covalent binding to TEAD proteins (TEAD proteins): do not covalently bind; Activity: inhibition of TEAD palmitoylation (TEAD palmitoylation): inactive |
